From article PMC8159961, “Exploring protein hotspots by optimized fragment pharmacophores” (Nature Communications, 2021) come the findings set out here.

SMILES strings stand for the structures.

For assay [1], the target named is T1, human 5-HT7b receptor (Homo sapiens, UniProt P34969).
T1 construct: expressed in transfected cells
The assay can be described thus: GPCR radioligand binding assay, [3H]-5-CT displacement, HEK293 membranes. The conditions noted are these: for 5-HT7 % Inhibition by plate position: 10 µM; for %inh 5-HT7 average: average of exp_1 and exp_2; for %inh 5-HT7 exp_1: replicate exp_1; for %inh 5-HT7 exp_2: replicate exp_2.

Assay [2] deals with T2, human 5-HT1A receptor (Homo sapiens, UniProt P08908).
T2 construct: expressed in transfected cells
T2 sequence (P08908 1-422): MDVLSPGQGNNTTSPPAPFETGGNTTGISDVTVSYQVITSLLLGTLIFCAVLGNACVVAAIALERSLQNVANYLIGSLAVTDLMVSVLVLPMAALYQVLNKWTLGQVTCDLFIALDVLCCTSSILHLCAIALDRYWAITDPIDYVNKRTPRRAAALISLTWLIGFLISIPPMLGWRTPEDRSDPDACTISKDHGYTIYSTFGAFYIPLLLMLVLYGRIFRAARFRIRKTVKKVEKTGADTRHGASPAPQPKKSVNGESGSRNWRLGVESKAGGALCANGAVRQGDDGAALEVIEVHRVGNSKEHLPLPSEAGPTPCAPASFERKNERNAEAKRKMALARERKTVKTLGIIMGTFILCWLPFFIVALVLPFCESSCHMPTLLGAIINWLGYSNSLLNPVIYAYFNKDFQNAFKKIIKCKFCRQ
The experiment in a line: GPCR radioligand binding assay, [3H]-8-OH-DPAT displacement, HEK293 membranes. The conditions noted are these: for 5-HT1A % Inhibition by plate position: 10 µM; for %inh 5-HT1A average: average of exp_1 and exp_2; for %inh 5-HT1A exp_1: replicate exp_1; for %inh 5-HT1A exp_2: replicate exp_2; for %inh 5-HT1A corrected*: average, values below 0 and above 100% were set as 0 and 100.

Assay [3] deals with T3, human 5-HT6 receptor (Homo sapiens, UniProt P50406).
T3 construct: expressed in transfected cells
T3 sequence (P50406 whole entry): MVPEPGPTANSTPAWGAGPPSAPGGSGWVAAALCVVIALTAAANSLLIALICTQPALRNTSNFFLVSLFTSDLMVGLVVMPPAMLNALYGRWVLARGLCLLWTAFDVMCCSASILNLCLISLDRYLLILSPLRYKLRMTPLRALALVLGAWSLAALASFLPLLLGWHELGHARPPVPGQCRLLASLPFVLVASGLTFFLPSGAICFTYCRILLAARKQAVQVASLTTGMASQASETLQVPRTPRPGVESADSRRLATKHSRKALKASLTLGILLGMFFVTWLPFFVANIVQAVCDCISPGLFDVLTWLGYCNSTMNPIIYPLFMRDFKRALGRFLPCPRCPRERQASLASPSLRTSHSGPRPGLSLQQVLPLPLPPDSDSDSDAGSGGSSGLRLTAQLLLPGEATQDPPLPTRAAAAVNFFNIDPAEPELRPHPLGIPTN
The assay can be described thus: GPCR radioligand binding assay, [3H]-LSD displacement, HEK293 membranes. Particulars: for 5-HT6 % Inhibition by plate position: 10 µM; for %inh 5-HT6 average: average of exp_1 and exp_2; for %inh 5-HT6 corrected*: average, values below 0 and above 100% were set as 0 and 100; for %inh 5-HT6 exp_1: replicate exp_1; for %inh 5-HT6 exp_2: replicate exp_2.

T1 sequence (P34969 1-432): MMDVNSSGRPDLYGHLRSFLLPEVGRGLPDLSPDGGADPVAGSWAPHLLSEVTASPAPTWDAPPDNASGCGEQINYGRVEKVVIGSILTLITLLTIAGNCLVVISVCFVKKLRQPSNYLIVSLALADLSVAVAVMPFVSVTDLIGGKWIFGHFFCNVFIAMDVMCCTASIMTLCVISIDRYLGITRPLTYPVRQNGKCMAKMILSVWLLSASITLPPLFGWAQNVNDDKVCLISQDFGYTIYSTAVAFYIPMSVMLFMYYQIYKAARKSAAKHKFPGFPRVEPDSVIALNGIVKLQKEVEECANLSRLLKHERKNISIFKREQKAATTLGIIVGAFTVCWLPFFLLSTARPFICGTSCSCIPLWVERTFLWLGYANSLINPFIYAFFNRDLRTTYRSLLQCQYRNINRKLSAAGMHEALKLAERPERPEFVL

As for `CN1CC(=O)NC1=O` [B10], in assay [1], the “5-HT7 % Inhibition by plate position” value stood at 0%, the “%inh 5-HT7 average” value was -7.6%, the “%inh 5-HT7 exp_1” value is -15% and the “%inh 5-HT7 exp_2” value amounted to 0%. In assay [2], the “5-HT1A % Inhibition by plate position” value turned out to be 0%, the “%inh 5-HT1A average” value is listed as -4.34%, the “%inh 5-HT1A exp_1” value amounted to 4% and the “%inh 5-HT1A exp_2” value was -13%. In assay [3], the “5-HT6 % Inhibition by plate position” value is recorded as 35%, the “%inh 5-HT6 average” value was 35%, the “%inh 5-HT6 corrected*” value turned out to be 35% and the “%inh 5-HT6 exp_1” value stood at 31%. In assay [3], the “%inh 5-HT6 exp_2” value stood at 40%.
Consider `Cc1cc(N)no1` [B11], for which, in assay [1], the “5-HT7 % Inhibition by plate position” value amounted to 1.49%, the “%inh 5-HT7 exp_1” value is -8% and the “%inh 5-HT7 exp_2” value worked out at 11%. Further, in assay [2], the “5-HT1A % Inhibition by plate position” value is 0%, the “%inh 5-HT1A average” value is -21%, the “%inh 5-HT1A exp_1” value is -18% and the “%inh 5-HT1A exp_2” value is recorded as -24%. Moreover, in assay [3], the “5-HT6 % Inhibition by plate position” value amounted to 37%, the “%inh 5-HT6 average” value was 37%, the “%inh 5-HT6 corrected*” value is 37% and the “%inh 5-HT6 exp_1” value came to 40%. The “%inh 5-HT6 exp_2” value in assay [3] was determined as 34%.
Take `Fc1ccc(CC2CCCNC2)cc1` (stereo not drawn) [C1]: in assay [1], the “5-HT7 % Inhibition by plate position” value was found to be 22%, the “%inh 5-HT7 exp_1” value came out at 27% and the “%inh 5-HT7 exp_2” value was determined as 18%. For the same compound, in assay [2], the “%inh 5-HT1A average” value is 21%, the “%inh 5-HT1A corrected*” value came out at 21%, the “%inh 5-HT1A exp_1” value stood at 23% and the “%inh 5-HT1A exp_2” value came to 19%. Also, in assay [3], the “5-HT6 % Inhibition by plate position” value is recorded as 42%, the “%inh 5-HT6 average” value is recorded as 42%, the “%inh 5-HT6 corrected*” value is reported as 42% and the “%inh 5-HT6 exp_1” value turned out to be 47%. Moreover, the “%inh 5-HT6 exp_2” value in assay [3] came to 37%.
On to `c1ccc(-c2ccncc2)cc1` [C2], for which, in assay [1], the “5-HT7 % Inhibition by plate position” value is 6%, the “%inh 5-HT7 exp_1” value is listed as 14% and the “%inh 5-HT7 exp_2” value is -2%. Besides, in assay [2], the “5-HT1A % Inhibition by plate position” value came out at 0%, the “%inh 5-HT1A average” value was -6%, the “%inh 5-HT1A exp_1” value was -11% and the “%inh 5-HT1A exp_2” value turned out to be 0%. Moreover, in assay [3], the “5-HT6 % Inhibition by plate position” value came out at 36%, the “%inh 5-HT6 average” value was found to be 36%, the “%inh 5-HT6 corrected*” value turned out to be 36% and the “%inh 5-HT6 exp_1” value is given as 32%. Also, the “%inh 5-HT6 exp_2” value in assay [3] turned out to be 40%.
On to `NC(c1ccccc1)c1ccccc1` [C3], for which, in assay [1], the “5-HT7 % Inhibition by plate position” value is recorded as 0%, the “%inh 5-HT7 average” value was -9%, the “%inh 5-HT7 exp_1” value is -16% and the “%inh 5-HT7 exp_2” value is reported as -1%. In addition, in assay [2], the “5-HT1A % Inhibition by plate position” value came out at 0%, the “%inh 5-HT1A average” value is given as -12%, the “%inh 5-HT1A exp_1” value is listed as -22% and the “%inh 5-HT1A exp_2” value is -1.84%. Moreover, in assay [3], the “5-HT6 % Inhibition by plate position” value is on record as 25%, the “%inh 5-HT6 average” value was found to be 25%, the “%inh 5-HT6 corrected*” value was 25% and the “%inh 5-HT6 exp_1” value was determined as 16%. In addition, the “%inh 5-HT6 exp_2” value in assay [3] was 33%.
Consider `c1ccc2c(N3CCNCC3)ccnc2c1` [C4], for which, in assay [1], the “5-HT7 % Inhibition by plate position” value is given as 16%, the “%inh 5-HT7 exp_1” value was 17% and the “%inh 5-HT7 exp_2” value was 15%. In addition, in assay [2], the “%inh 5-HT1A average” value stood at 81%, the “%inh 5-HT1A corrected*” value was determined as 81%, the “%inh 5-HT1A exp_1” value was 78% and the “%inh 5-HT1A exp_2” value is given as 83%. In addition, in assay [3], the “5-HT6 % Inhibition by plate position” value is recorded as 72%, the “%inh 5-HT6 average” value was 72%, the “%inh 5-HT6 corrected*” value is listed as 72% and the “%inh 5-HT6 exp_1” value stood at 71%. Besides, the “%inh 5-HT6 exp_2” value in assay [3] stood at 72%.
As for `O=c1ccc2c([nH]1)CCCC2` [C5], in assay [1], the “5-HT7 % Inhibition by plate position” value came to 1%, the “%inh 5-HT7 exp_1” value was determined as 0.605% and the “%inh 5-HT7 exp_2” value stood at 1.43%. In addition, in assay [2], the “5-HT1A % Inhibition by plate position” value was 0%, the “%inh 5-HT1A average” value was -1.35%, the “%inh 5-HT1A exp_1” value is recorded as -18% and the “%inh 5-HT1A exp_2” value is reported as 15%. Also, in assay [3], the “5-HT6 % Inhibition by plate position” value is listed as 46%, the “%inh 5-HT6 average” value came to 46%, the “%inh 5-HT6 corrected*” value was 46% and the “%inh 5-HT6 exp_1” value was 39%. The “%inh 5-HT6 exp_2” value in assay [3] is 53%.
As for `CC1(C)OC(=O)c2cc(Br)c(O)cc2O1` [C6], in assay [1], the “5-HT7 % Inhibition by plate position” value is on record as 0.891%, the “%inh 5-HT7 exp_1” value stood at 1.78% and the “%inh 5-HT7 exp_2” value was 0%. Further, in assay [2], the “5-HT1A % Inhibition by plate position” value was found to be 0%, the “%inh 5-HT1A average” value is on record as -0.191%, the “%inh 5-HT1A exp_1” value is given as -7.5% and the “%inh 5-HT1A exp_2” value is 7%. For the same compound, in assay [3], the “5-HT6 % Inhibition by plate position” value amounted to 56%, the “%inh 5-HT6 average” value came out at 56%, the “%inh 5-HT6 corrected*” value is 56% and the “%inh 5-HT6 exp_1” value was determined as 67%. For the same compound, the “%inh 5-HT6 exp_2” value in assay [3] is recorded as 45%.
Take `CC(=O)c1ccc2c(c1)CCCN2` [C7]: in assay [1], the “5-HT7 % Inhibition by plate position” value was determined as 0%, the “%inh 5-HT7 average” value was -16%, the “%inh 5-HT7 exp_1” value is listed as -14% and the “%inh 5-HT7 exp_2” value was -18%. In addition, in assay [2], the “%inh 5-HT1A average” value was determined as 2.29%, the “%inh 5-HT1A corrected*” value came out at 2.29%, the “%inh 5-HT1A exp_1” value is on record as -2% and the “%inh 5-HT1A exp_2” value is listed as 6.6%. Moreover, in assay [3], the “5-HT6 % Inhibition by plate position” value was 9%, the “%inh 5-HT6 average” value came to 9%, the “%inh 5-HT6 corrected*” value is on record as 9% and the “%inh 5-HT6 exp_1” value worked out at 10%. Also, the “%inh 5-HT6 exp_2” value in assay [3] is reported as 8%.
Consider `CC(=O)c1ccc2c(c1)CNCC2` [C8], for which, in assay [1], the “5-HT7 % Inhibition by plate position” value is listed as 4%, the “%inh 5-HT7 exp_1” value is recorded as 8% and the “%inh 5-HT7 exp_2” value is 0%. In addition, in assay [2], the “5-HT1A % Inhibition by plate position” value worked out at 0%, the “%inh 5-HT1A average” value was -13%, the “%inh 5-HT1A exp_1” value is recorded as -22% and the “%inh 5-HT1A exp_2” value is reported as -3.26%. Also, in assay [3], the “5-HT6 % Inhibition by plate position” value was 2.55%, the “%inh 5-HT6 average” value turned out to be 2.55%, the “%inh 5-HT6 corrected*” value was 2.55% and the “%inh 5-HT6 exp_1” value came to 6%. In assay [3], the “%inh 5-HT6 exp_2” value is -1%.
For `O=C1NC2(CCCC2)Nc2ccccc21` [C9], in assay [1], the “5-HT7 % Inhibition by plate position” value is listed as 5%, the “%inh 5-HT7 exp_1” value was -2.47% and the “%inh 5-HT7 exp_2” value came out at 13%. Further, in assay [2], the “5-HT1A % Inhibition by plate position” value was 0%, the “%inh 5-HT1A average” value was -0.0168%, the “%inh 5-HT1A exp_1” value is listed as 4.43% and the “%inh 5-HT1A exp_2” value is reported as -4.46%. Besides, in assay [3], the “5-HT6 % Inhibition by plate position” value is on record as 44%, the “%inh 5-HT6 average” value was 44%, the “%inh 5-HT6 corrected*” value is 44% and the “%inh 5-HT6 exp_1” value was 46%. In addition, in assay [3], the “%inh 5-HT6 exp_2” value is given as 41%.
